Experimental data published in patent US20150105252A1, “SUBSTITUTED PYRAZOLES AS HERBICIDES” (E I DU PONT DE NEMOURS AND COMPANY, priority 2013, published 2015).

Experiments:
crabgrass, naked = experiment: Test E preemergence; assay type: in vivo, Digitaria nuda; details: 21 days, scale 0 to 100
Source text: (§1) Seeds of plant species selected from bermudagrass (Cynodon dactylon), Surinam grass (Brachiaria decumbens), crabgrass, large (large crabgrass, Digitaria sanguinalis), crabgrass, naked (naked crabgrass, Digitaria nuda), foxtail, green (green foxtail, Setaria viridis), johnsongrass (Sorghum halepense), kochia (Kochia scoparia), morningglory (pitted morningglory, Ipomoea lacunosa), nutsedge, purple (purple nutsedge, Cyperus rotundus), ragweed (common ragweed, Ambrosia elation), mustard, black (black mustard, Brassica nigra), guineagrass (Panicum maximum), dallisgrass (Paspalum dilatatum), barnyardgrass (Echinochloa crus-galli), sandbur (southern sandbur, Cenchrus echinatus), sowthistle (common sowthistle, Sonchus oleraceous), ryegrass, Italian (Italian ryegrass, Lolium multiflorum), signalgrass (broadleaf signalgrass, Brachiaria platyphylla), dayflower, VA (Virginia (VA) dayflower, Commelina virginica), bluegrass (annual bluegrass, Poa annua), quackgrass (Elytrigia repens), mallow (common mallow, Malva sylvestris), buckwheat, wild (wild buckwheat, Polygonum convolvulus), leafy spurge (Euphorbia esula), common chickweed (Stellaria media), wild poinsettia (Euphorbia heterophylla), pigweed, palmer (palmer pigweed, Amaranthus palmeri), and pigweed (redroot pigweed, Amaranthus retroflexus) were planted into a blend of loam soil and sand and treated preemergence with test chemicals formulated in a non-phytotoxic solvent mixture which included a surfactant.
(§2) Treated plants and controls were maintained in a greenhouse for 21 days, after which time all species were compared to controls and visually evaluated. Plant response ratings, summarized in Table E, are based on a scale of 0 to 100 where 0 is no effect and 100 is complete control. A dash (-) response means no test result.

johnsongrass = experiment: Test E preemergence; assay type: in vivo, Sorghum halepense; details: 21 days, scale 0 to 100
Source text: as §1, §2

guineagrass = experiment: Test E preemergence; assay type: in vivo, Panicum maximum; details: 21 days, scale 0 to 100
Source text: as §1, §2

sandbur = experiment: Test E preemergence; assay type: in vivo, Cenchrus echinatus; details: 21 days, scale 0 to 100
Source text: as §1, §2

common ragweed = experiment: Test F postemergence; assay type: in vivo, Ambrosia elation; details: scale 0 to 100
Source text: (§3) Seeds of plant species selected from corn (Zea mays), soybean (Glycine max), velvetleaf (Abutilon theophrasti), lambsquarters (Chenopodium album), wild poinsettia (Euphorbia heterophylla), pigweed, palmer (palmer pigweed, Amaranthus palmeri), common waterhemp (Amaranthus rudis), surinam grass (Brachiaria decumbens), large crabgrass (Digitaria sanguinalis), crabgrass, Brazil (Brazilian crabgrass, Digitaria horizontalis), fall panicum (Panicum dichotomiflorum), giant foxtail (Setaria faberii), green foxtail (Setaria viridis), goosegrass (Eleusine indica), johnsongrass (Sorghum halepense), common ragweed (Ambrosia elation), barnyardgrass (Echinochloa crus-galli), southern sandbur (Cenchrus echinatus), arrowleaf sida (Sida rhombifolia), Italian ryegrass (Lolium multiflorum), dayflower, VA (Virginia (VA) dayflower, Commelina virginica), field bindweed (Convolvulus arvensis), cocklebur (common cocklebur, Xanthium strumarium), morningglory (Ipomoea coccinea), nightshade (eastern black nightshade, Solanum ptycanthum), kochia (Kochia scoparia), yellow nutsedge (Cyperus esculentus), and hairy beggarticks (Bidens pilosa), were planted into a silt loam soil and treated preemergence with test chemicals formulated in a non-phytotoxic solvent mixture which included a surfactant.
(§4) At the same time, plants from these crop and weed species and also horseweed (Canada horseweed, Conyza canadensis), smartweed (ladysthumb smartweed, Polygonum persicaria), waterhemp_RES1, (ALS & Triazine resistant common waterhemp, Amaranthus rudis), and waterhemp_RES2, (ALS & HPPD resistant common waterhemp, Amaranthus rudis) were treated with postemergence applications of test chemicals formulated in the same manner. Plants ranged in height from 2 to 18 cm for postemergence treatments (1- to 4-leaf stage). Treated plants and controls were maintained in a greenhouse for 14 to 21 days, after which time all species were compared to controls and visually evaluated. Plant response ratings, summarized in Table F, are based on a scale of 0 to 100 where 0 is no effect and 100 is complete control. A dash (-) response means no test result.

barnyardgrass = experiment: Test F postemergence; assay type: in vivo, Echinochloa crus-galli; details: scale 0 to 100
Source text: as §3, §4

field bindweed = experiment: Test F postemergence; assay type: in vivo, Convolvulus arvensis; details: scale 0 to 100
Source text: as §3, §4

kochia = experiment: Test F postemergence; assay type: in vivo, Kochia scoparia; details: scale 0 to 100
Source text: as §3, §4

Row | SMILES | Plant response rating, Crabgrass, Naked (crabgrass, naked; 31 g ai/ha) | Plant response rating, Crabgrass, Naked (crabgrass, naked; 62 g ai/ha) | Plant response rating, Crabgrass, Naked (crabgrass, naked; 125 g ai/ha) | Plant response rating, Crabgrass, Naked (crabgrass, naked; 250 g ai/ha) | Plant response rating, Johnsongrass (johnsongrass; 16 g ai/ha) | Plant response rating, Johnsongrass (johnsongrass; 31 g ai/ha) | Plant response rating, Johnsongrass (johnsongrass; 62 g ai/ha) | Plant response rating, Johnsongrass (johnsongrass; 125 g ai/ha) | Plant response rating, Johnsongrass (johnsongrass; 250 g ai/ha) | Plant response rating, Guineagrass (guineagrass; 16 g ai/ha) | Plant response rating, Guineagrass (guineagrass; 31 g ai/ha) | Plant response rating, Guineagrass (guineagrass; 62 g ai/ha) | Plant response rating, Guineagrass (guineagrass; 125 g ai/ha) | Plant response rating, Guineagrass (guineagrass; 250 g ai/ha) | Plant response rating, Sandbur (sandbur; 16 g ai/ha) | Plant response rating, Sandbur (sandbur; 31 g ai/ha) | Plant response rating, Sandbur (sandbur; 62 g ai/ha) | Plant response rating, Sandbur (sandbur; 125 g ai/ha) | Plant response rating, Sandbur (sandbur; 250 g ai/ha) | also measured
1 | CCc1cc(C(=O)NCC(F)(F)F)nn1Cc1ccnc(C(F)(F)F)c1 [Compound 78, 5-ethyl-N-(2,2,2-trifluoroethyl)-1-[[(2-trifluoromethyl)-4-pyridinyl]methyl]-1H-pyrazole-3-carboxamide] | 95 | 95 | 100 | 100 | 40 | 80 | 85 | 100 | 100 | 90 | 100 | 100 | 100 | 100 | 40 | 50 | 90 | 95 | 100 | Plant response rating, Common Ragweed (common ragweed; Postemergence, 31 g ai/ha): 65; Plant response rating, Common Ragweed (common ragweed; Postemergence, 125 g ai/ha): 70; Plant response rating, Common Ragweed (common ragweed; Postemergence, 250 g ai/ha): 80; Plant response rating, Common Ragweed (common ragweed; postemergence, 62 g ai/ha): 50; Plant response rating, Common Ragweed (common ragweed; postemergence, 500 g ai/ha): 95; Plant response rating, Barnyardgrass (barnyardgrass; Postemergence, 31 g ai/ha): 5; Plant response rating, Barnyardgrass (barnyardgrass; Postemergence, 125 g ai/ha): 40; Plant response rating, Barnyardgrass (barnyardgrass; Postemergence, 250 g ai/ha): 70; Plant response rating, Barnyardgrass (barnyardgrass; postemergence, 62 g ai/ha): 30; Plant response rating, Barnyardgrass (barnyardgrass; postemergence, 500 g ai/ha): 90; Plant response rating, Field Bindweed (field bindweed; Postemergence, 31 g ai/ha): 40; Plant response rating, Field Bindweed (field bindweed; Postemergence, 125 g ai/ha): 90; Plant response rating, Field Bindweed (field bindweed; Postemergence, 250 g ai/ha): 95; Plant response rating, Field Bindweed (field bindweed; postemergence, 62 g ai/ha): 70; Plant response rating, Field Bindweed (field bindweed; postemergence, 500 g ai/ha): 98; Plant response rating, Kochia (kochia; Postemergence, 31 g ai/ha): 65; Plant response rating, Kochia (kochia; Postemergence, 125 g ai/ha): 90; Plant response rating, Kochia (kochia; Postemergence, 250 g ai/ha): 90; Plant response rating, Kochia (kochia; postemergence, 62 g ai/ha): 90; Plant response rating, Kochia (kochia; postemergence, 500 g ai/ha): 95
2 | CCc1cc(C(=O)NC(C)C)nn1Cc1ccnc(C(F)(F)F)c1 [Compound 103] | 100 | 100 | 100 | 100 | 70 | 100 | 100 | 100 | 100 | 100 | 100 | 100 | 100 | 100 | 40 | 70 | 100 | 100 | 100 | Plant response rating, Crabgrass, Naked (crabgrass, naked; 16 g ai/ha): 100
